What was measured:
Assay type in all cases: cell-based
[1] = tested on: Pseudomonas aeruginosa; assay: Agar dilution MIC (Table II); details: inoculum 1 to 5 x 10^4 CFU, about 18 hours, 35°C
Procedure: (§1) The in vitro antibacterial activity of dihydro LL-E33288gamma l-I was determined against a spectrum of gram-positive and gram-negative bacteria by a standard agar dilution method. Mueller-Hinton agar containing two-fold decreasing concentrations of the antibiotics was poured into petri plates. The agar surfaces were inoculated with 1 to 5 x 10^4 colony forming units of bacteria by means of a Steers replicating device.

[2] = tested on: Staphylococcus epidermidis; assay: Agar dilution MIC (Table II); details: inoculum 1 to 5 x 10^4 CFU, about 18 hours, 35°C
Procedure: as §1

[3] = tested on: Serratia marcescens; assay: Agar dilution MIC (Table II); details: inoculum 1 to 5 x 10^4 CFU, about 18 hours, 35°C
Procedure: as §1

[4] = tested on: Klebsiella pneumoniae; assay: Agar dilution MIC (Table II); details: inoculum 1 to 5 x 10^4 CFU, about 18 hours, 35°C
Procedure: as §1

[5] = tested on: Acinetobacter sp; assay: Agar dilution MIC (Table II); details: inoculum 1 to 5 x 10^4 CFU, about 18 hours, 35°C
Procedure: as §1

[6] = tested on: Morganella morganii; assay: Agar dilution MIC (Table II); details: Morganella morganii IO 83-18; inoculum 1 to 5 x 10^4 CFU; about 18 hours, 35°C
Procedure: as §1

[7] = tested on: Staphylococcus aureus; assay: Agar dilution MIC (Table II); details: inoculum 1 to 5 x 10^4 CFU, about 18 hours, 35°C
Procedure: as §1

[8] = tested on: Escherichia coli; assay: Agar dilution MIC (Table II); details: inoculum 1 to 5 x 10^4 CFU, about 18 hours, 35°C
Procedure: as §1

[9] = tested on: Streptococcus faecalis; assay: Agar dilution MIC (Table II); details: inoculum 1 to 5 x 10^4 CFU, about 18 hours, 35°C
Procedure: as §1

[10] = tested on: Citrobacter freundii; assay: Agar dilution MIC (Table II); details: Citrobacter freundii IO 83-13; inoculum 1 to 5 x 10^4 CFU; about 18 hours, 35°C
Procedure: as §1

[11] = tested on: Enterobacter cloacae; assay: Agar dilution MIC (Table II); details: Enterobacter cloacae CMC 84-4; inoculum 1 to 5 x 10^4 CFU; about 18 hours, 35°C
Procedure: as §1

[12] = tested on: Citrobacter diversus; assay: Agar dilution MIC (Table II); details: Citrobacter diversus K-82-24; inoculum 1 to 5 x 10^4 CFU; about 18 hours, 35°C
Procedure: as §1

[13] = tested on: Enterobacter aerogenes; assay: Agar dilution MIC (Table II); details: Enterobacter aerogenes IO 83-44; inoculum 1 to 5 x 10^4 CFU; about 18 hours, 35°C
Procedure: as §1

[14] = tested on: Providencia stuartii; assay: Agar dilution MIC (Table II); details: Providencia stuartii CMC 83-82; inoculum 1 to 5 x 10^4 CFU; about 18 hours, 35°C
Procedure: as §1

[15] = tested on: E. coli-lambda lysogen; assay: Biochemical Induction Assay (BIA), modified; details: ability to directly or indirectly initiate DNA damage
Description: The LL-E33288 antibiotics are active against gram-positive and gram-negative bacteria. Each of the components were also found to be active in a modification of the Biochemical Induction Assay [Elespuru, R. and Yarmolinsky, M., Environmental Mutagenesis, 1, 65-78 […]], a test which specifically measures the ability of an agent to directly or indirectly initiate DNA damage. In this assay, both LL-E33288γ1-I and LL-E33288δ1-I were active at concentrations lower than 1x10^-6 mcg/ml.
This pseudoaglycone is also active as an antitumor agent as determined in the Biochemical Induction Assay (BIA), a bacterial assay system which specifically measures the ability of an agent to directly or indirectly initiate DNA damage. The indicator organism for this test is an E. coli-lambda lysogen, genetically constructed such that a DNA damaging event results in the expression of the gene for the enzyme β-galactosidase. This enzyme can be determined qualitatively or quantitatively by biochemical assay as an indication that DNA damage has occurred.
A modified version of the quantitative liquid BIA disclosed by Elespuru, R. and Yarmolinsky, M., Environmental Mutagenesis, 1, 65 (1979) was used to evaluate these compounds.

For “Dihydro-LL-E33288γ1-I [Dihydro-LL-E33288gamma1-I]”, the “Minimal Inhibitory Concentration” value ([1]; Pseudomonas aeruginosa 12-4-4(MP)) was 2 µg/mL, the “Minimal Inhibitory Concentration” value ([1]; Pseudomonas aeruginosa ATCC 27853) was 2 µg/mL and the “Minimal Inhibitory Concentration” value ([2]; Staphylococcus epidermidis ATCC 12228) was 0.015 µg/mL. For the same compound, the “Minimal Inhibitory Concentration” value ([2]; Staphylococcus epidermidis CMC 83-133) was 0.015 µg/mL, the “Minimal Inhibitory Concentration” value ([3]; Serratia marcescens CMC 83-27) was 2 µg/mL and the “Minimal Inhibitory Concentration” value ([3]; Serratia marcescens F-35(MP)) was 2 µg/mL. For the same compound, the “Minimal Inhibitory Concentration” value ([4]; Klebsiella pneumoniae AD(MP)) was 1 µg/mL, the “Minimal Inhibitory Concentration” value ([4]; Klebsiella pneumoniae CMC 84-5) was greater than 2 µg/mL and the “Minimal Inhibitory Concentration” value ([5]; Acinetobacter sp CMC 83-89) was 2 µg/mL. For the same compound, the “Minimal Inhibitory Concentration” value ([5]; Acinetobacter sp IO 83-49) was greater than 2 µg/mL, the “Minimal Inhibitory Concentration” value [6] was 1 µg/mL and the “Minimal Inhibitory Concentration” value ([7]; Staphylococcus aureus ATCC 25923) was 0.06 µg/mL. The “Minimal Inhibitory Concentration” value ([7]; Staphylococcus aureus SSC 82-20) was 0.06 µg/mL, the “Minimal Inhibitory Concentration” value ([7]; Staphylococcus aureus SSC 82-21) was 0.004 µg/mL and the “Minimal Inhibitory Concentration” value ([7]; Staphylococcus aureus SSC 82-23) was 0.008 µg/mL. For the same compound, the “Minimal Inhibitory Concentration” value ([7]; Staphylococcus aureus SSC 82-24) was 0.002 µg/mL, the “Minimal Inhibitory Concentration” value ([7]; Staphylococcus aureus SSC 82-54) was 0.06 µg/mL and the “Minimal Inhibitory Concentration” value ([7]; Staphylococcus aureus Smith(MP)) was 0.004 µg/mL. The “Minimal Inhibitory Concentration” value ([8]; Escherichia coli ATCC 25922) was 1 µg/mL, the “Minimal Inhibitory Concentration” value ([8]; Escherichia coli CMC 84-11) was 2 µg/mL and the “Minimal Inhibitory Concentration” value ([8]; Escherichia coli No. 311(MP)) was 2 µg/mL. For the same compound, the “Minimal Inhibitory Concentration” value ([9]; Streptococcus faecalis ATCC 29212) was 0.001 µg/mL, the “Minimal Inhibitory Concentration” value ([9]; Streptococcus faecalis CMC 83-53) was 0.015 µg/mL and the “Minimal Inhibitory Concentration” value ([9]; Streptococcus faecalis IO 83-28) was 0.015 µg/mL. The “Minimal Inhibitory Concentration” value [10] was 2 µg/mL, the “Minimal Inhibitory Concentration” value [11] was 2 µg/mL and the “Minimal Inhibitory Concentration” value [12] was 2 µg/mL. The “Minimal Inhibitory Concentration” value [13] was 2 µg/mL and the “Minimal Inhibitory Concentration” value [14] was 2 µg/mL.
In the case of CCN[C@H]1CO[C@@H](O[C@H]2[C@H](O[C@H]3C#CC=CC#C[C@@]4(O)CC(=O)C(NC(=O)OC)=C3/C4=C\CSSSC)O[C@H](C)[C@@H](NO[C@H]3C[C@H](O)[C@H](SC(=O)c4c(C)c(I)c(O[C@@H]5O[C@@H](C)[C@H](O)[C@@H](OC)[C@H]5O)c(OC)c4OC)[C@@H](C)O3)[C@@H]2O)C[C@@H]1OC (stereo in doubt) [LL-E33288γ1-I], the active at concentrations [15] is reported as “lower than 1x10^-6 mcg/ml”.
